Laboratory results reported in US9937198B2, “Multi-functional composition and preparation method and application thereof” (Suzhou Sciscape Bio-Pharmaceutical Technology Co., Ltd., priority 2013, dated 2018).

Key:
Type in all cases: in vivo
diabetic mice = experiment: Reduction of blood glucose in streptozotocin diabetic mice; conditions: for Blood glucose level at different time points after administration: 13.3 mL/kg intragastric at 9 am and 9 pm every day; for Blood glucose level before administration: baseline, STZ diabetic mice
Procedure: Male ICR mice, 8 weeks old, 20±2 g in body weight, were purchased from Beijing HFK Bioscience Co., Ltd.
Also, the solutions of Compositions 1-7 were used in this Example.
I. Modeling: Before experiment started, a 0.1 mol/L sodium citrate buffer (pH4.5) was prepared. It was sterilized in an autoclave and then stored in a refrigerator at 4° C. Before the modeling began, this sodium citrate buffer was used to freshly prepare a 10 mg/mL solution of streptozotocin (STZ) in an ice bath. The mice were fed normally for 3 days, and then they were intraperitoneally administered with the freshly prepared STZ solution at a dose of 45 mg/kg for 5 consecutive days once a day.
II. Treatment: After the model was successfully established, the mice had not been administered with streptozotocin solution were arranged in a group, i.e., the normal group, and normally fed. The diabetic mice were randomly divided into 11 groups depending on blood glucose level, the groups being a model group, administration groups 1 to 7 and negative control groups 1 to 3. The mice in administration groups 1 to 7 were respectively intragastrically given the solution of Composition 1 to 7 prepared in this Example at a dose of 13.3 mL/kg body weight. The mice in the model group were intragastrically given sterile water for medical use at a dose of 13.3 mL/kg body weight. The mice in negative control groups 1 to 3 were respectively intragastrically administered with the solution of trehalose (0.15 g/mL), the solution of validamycin (0.3 mg/mL) and the solution of algal polysaccharides (0.15 g/mL) at a dose of 13.3 mL/kg body weight. The administration was conducted at 9 am and 9 pm every day, and blood glucose level was checked by Roche blood glucose meter once every other week for 5 weeks.

normal mice = experiment: Acetic acid writhing (pain) in normal mice; conditions: for Time of initial writhing: 13.3 mL/kg intragastric, 0.6% acetic acid i.p. 20 min later; for Pain inhibition ratio: relative to number of writhings in blank control group; for Number of writhings: within 30 min after acetic acid injection
Description: Male ICR mice, 8 weeks old and 20±2 g in body weight, were purchased from Beijing HFK Bioscience Co., Ltd.
The solutions of Compositions 1 to 7 prepared in this example were used.
After mice were normally fed for 3 days, they were randomly divided into 11 groups depending on body weight, i.e., a blank control group, administration groups 1 to 7 and negative control groups 1 to 3, by body weight. The mice in administration groups 1 to 7 were intragastrically given the solutions of Compositions 1 to 7 respectively at a dose of 13.3 mL/kg body weight while the mice in the blank control group were intragastrically given sterile water for medical use at a dose of 13.3 mL/kg body weight. The mice in negative control groups 1 to 3 were intragastrically given the solution of trehalose (0.15 g/mL), the solution of validamycin (0.3 mg/mL) and the solution of algal polysaccharides (0.15 g/mL) at a dose of 13.3 mL/kg body weight respectively. Twenty minutes after the administration, the mice were intraperitoneally administered with 0.2 ml of solution of acetic acid (0.6%). Then, the number of writhing and time when initial writhing occurred in mice were observed within 30 min after injection of acetic acid solution and the pain inhibition ratio (pain inhibition ratio=(number of writhings in the blank control group—number of writhings in the administration group)/number of writhings in the blank control group) was calculated.

[1] = system: patients with type-II diabetes; experiment: Long-term experiment for treatment in human diabetics; conditions: for Blood glucose level after administration: 200 mL oral
Procedure: Six patients with type-II diabetes were fasted overnight and then measured for fasting blood glucose level. Then they were orally administered with 200 mL of the solution of Composition 1, or 200 mL of solution of trehalose (0.15 g/mL), or 200 mL of the solution of validamycin (0.3 mg/mL), or 200 mL of distilled water, as stated in Table 3.4. The blood glucose level in every patient was tested before administration and one day, one week, two weeks and one month post administration.

Row | SMILES | Blood glucose level at different time points after administration (diabetic mice; 1 week) [mmol/L] | Blood glucose level at different time points after administration (diabetic mice; 2 weeks) [mmol/L] | Blood glucose level at different time points after administration (diabetic mice; 3 weeks) [mmol/L] | Blood glucose level at different time points after administration (diabetic mice; 4 weeks) [mmol/L] | Blood glucose level at different time points after administration (diabetic mice; 5 weeks) [mmol/L] | Blood glucose level before administration (diabetic mice) [mmol/L] | Time of initial writhing (normal mice) [min] | Pain inhibition ratio (normal mice) [%] | Number of writhings (normal mice) | Blood glucose level after administration ([1]; 1 month, individual type-II diabetics) [mmol/L] | Blood glucose level after administration ([1]; 1 week, individual type-II diabetics) [mmol/L] | Blood glucose level after administration ([1]; 2 weeks, individual type-II diabetics) [mmol/L] | Blood glucose level after administration ([1]; 1 day, individual type-II diabetics) [mmol/L] | Blood glucose level before administration ([1]; fasting baseline, individual type-II diabetics, long-term) [mmol/L] | effect on blood glucose level in patients with type-II diabetes, long-term ([1]; up to one month)
1 | OC[C@H]1O[C@H](O[C@H]2O[C@H](CO)[C@@H](O)[C@H](O)[C@H]2O)[C@H](O)[C@@H](O)[C@@H]1O [trehalose] | 22.15 ± 2.14 | 24.50 ± 2.35 | 25.33 ± 2.15 | 26.47 ± 2.12 | 27.16 ± 1.01 | 18.40 ± 2.07 | 3.4 ± 1.1 | 0.0 | 51.3 ± 1.6 | – | – | – | – | – | –
2 | OCC1=C[C@H](N[C@H]2C[C@H](CO)[C@@H](O[C@@H]3O[C@H](CO)[C@@H](O)[C@H](O)[C@H]3O)[C@H](O)[C@H]2O)[C@H](O)[C@@H](O)[C@@H]1O [validamycin] | 20.20 ± 2.11 | 22.51 ± 2.28 | 23.57 ± 2.06 | 23.57 ± 1.07 | 24.01 ± 1.25 | 18.27 ± 2.13 | 3.6 ± 1.6 | 0.0 | 51.9 ± 2.1 | 8.9 | 9.0 | 8.7 | 8.7 | 8.8 | had no influence on blood glucose level
